Here are results for two molecules from paper PMC12339163, “Combining Plant Bioactives With Antibiotics for Enhanced Antibiofilm Activity Against Uropathogenic Staphylococcus spp. and Cytotoxicity Evaluation” (Advances in Pharmacological and Pharmaceutical Sciences, 2025).

What all share (type): cell-based
Test [1] has as its system Staphylococcus epidermidis biofilm. Put plainly: Checkerboard combination assay, biofilm eradication. The following applies: S. epidermidis biofilm eradication; natural product alone; mean MBEC. How it is done: (§1) The effect of the combination of ATBs with NPs on the preformed biofilm was evaluated by determining the FICI, as described above for biofilm formation, with slight modifications. After biofilm formation for 24 h, the plate was gently emptied and washed three times with PBS. Then, 50 µL of ATBs and 50 µL of NPs were introduced to the plate. The final concentration ranges from 0.0625 to 128 µg/mL and from 4 to 512 µg/mL for ATBs and NPs, respectively, and is incubated at 37°C for 24 h. After incubation, the medium was gently removed, and the plate was washed three times with PBS. At the end of the incubation time, the MTT reduction assay was performed, and the MBEC was determined. To assess the effect of the combination, the FICI was calculated and interpreted as described above.

The test system of test [2] is Staphylococcus saprophyticus biofilm. The description is as above. The following applies: S. saprophyticus biofilm eradication; natural product alone; mean MBEC. How it is done: as §1
The test system of another test is Raw 264.7 macrophages. Put plainly: Cytotoxicity, MTT assay. The following applies: Mus musculus, RAW264.7, 48 h, Raw 264.7, MTT, read-out: IC50. How it is done:
(§2) Two cell lines, including Raw 264.7 macrophages and the urinary epithelial cell line UROtsa obtained from the American Type Culture Collection (Rockville, MD, USA), were used. They were cultured in Dulbecco's modified Eagle's medium (DMEM), which was supplemented with 10% fetal bovine serum (FBS) and 1% penicillin, streptomycin, and fungizone (PSF). They were then grown at 37°C in a humidified environment containing 5% CO2.
(§3) The cytotoxicity of the selected synergistic combinations, as well as the individual constituents of combinations, against the abovementioned cell lines was performed by the MTT assay as previously described. Briefly, cells from each line were harvested in the logarithmic phase using trypsin (0.05% trypsin, 0.02% EDTA in PBS). Cell suspension was diluted with an appropriate growth medium to obtain a cell density of 10^4 cells/well. A 100 µL aliquot of each suspension was seeded into 96-well cell culture plates and incubated at 37°C in an atmosphere of 5% CO2 and 95% relative humidity. After 24 h of incubation, 100 µL of samples (ATBs and NPs) at concentrations varying from 0.01, 0.1, 1, 10, 100, and 1000, as well as the synergistic combinations (C1 to C5), was added to the wells containing the cells. Doxorubicin was used as a positive control. Appropriate controls with an equivalent concentration of DMSO were also included. Plates were incubated for 48 h, then the medium in each well was aspirated, and MTT solution (2 mg/mL in PBS) was diluted 1:10 with fresh medium and added to each well, and the plates were further incubated at 37°C for 4 h. Absorbance was measured on a BioTek microplate reader at 570 nm. The percentage of cell viability was calculated by comparing treated and untreated cells using the equation [39]:(3) cell viability %=ODtest/ODcontrol×100.
(§4) Then, the IC50 values of the samples having shown at least 50% inhibition were calculated by plotting the percentage of inhibition against the concentrations.

For test [3], the system named is UROtsa urinary epithelial cells. Put plainly: Cytotoxicity, MTT assay. The following applies: Epithelial cell, 48 h, read-out: IC50. How it is done: as §2, §3, §4
On the technique in general: Tetrazolium assays rely on reduction of a dye to a coloured formazan, in cell work by metabolically active cells.

In the case of `O=c1c(O)c(-c2ccc(O)c(O)c2)oc2cc(O)cc(O)c12` [Quer], the “MBEC Alone NPs” value in test [1] was 170.66 µg/mL; in test [2], 256 µg/mL.
One may read the IC50 as the concentration needed to halve the response being measured. For the molecule `COc1cccc2c1C(=O)c1c(O)c3c(c(O)c1C2=O)C[C@@](O)(C(=O)CO)C[C@@H]3O[C@H]1C[C@H](N)[C@H](O)[C@H](C)O1` [Doxorubicin, doxorubicin], the results for the IC50 (in the test with Raw 264.7 macrophages; in test [3]) were 1.26 µg/mL and 1.58 µg/mL, respectively.
